Test results taken from ChEMBL document CHEMBL4507265 (2021).

Legend:
[1] = target: Discoidin domain-containing receptor 2 (Homo sapiens) (UniProt Q16832); settings: Compound concentration 1000.0 nM
[2] = target: NT-3 growth factor receptor (Homo sapiens) (UniProt Q16288); settings: Compound concentration 1000.0 nM
[3] = target: Dual specificity tyrosine-phosphorylation-regulated kinase 1B (Homo sapiens) (UniProt Q9Y463); settings: Compound concentration 1000.0 nM
[4] = target: TGF-beta receptor type-1 (Homo sapiens) (UniProt P36897); settings: Compound concentration 1000.0 nM
[5] = target: Tyrosine-protein kinase JAK3 (Homo sapiens) (UniProt P52333); settings: Compound concentration 1000.0 nM
[6] = target: G protein-coupled receptor kinase 3 (Homo sapiens) (UniProt P35626); settings: Compound concentration 1000.0 nM
[7] = target: Serine/threonine-protein kinase LATS1 (Homo sapiens) (UniProt O95835); settings: Compound concentration 1000.0 nM
[8] = test system: Receptor-type tyrosine-protein kinase FLT3 (Homo sapiens), P36888 [N841I]; settings: Compound concentration 1000.0 nM
[9] = target: Mitogen-activated protein kinase kinase kinase kinase 1 (Homo sapiens) (UniProt Q92918); settings: Compound concentration 1000.0 nM
Mitogen-activated protein kinase kinase kinase kinase 1 (Homo sapiens), sequence (Q92918 whole entry, looked up): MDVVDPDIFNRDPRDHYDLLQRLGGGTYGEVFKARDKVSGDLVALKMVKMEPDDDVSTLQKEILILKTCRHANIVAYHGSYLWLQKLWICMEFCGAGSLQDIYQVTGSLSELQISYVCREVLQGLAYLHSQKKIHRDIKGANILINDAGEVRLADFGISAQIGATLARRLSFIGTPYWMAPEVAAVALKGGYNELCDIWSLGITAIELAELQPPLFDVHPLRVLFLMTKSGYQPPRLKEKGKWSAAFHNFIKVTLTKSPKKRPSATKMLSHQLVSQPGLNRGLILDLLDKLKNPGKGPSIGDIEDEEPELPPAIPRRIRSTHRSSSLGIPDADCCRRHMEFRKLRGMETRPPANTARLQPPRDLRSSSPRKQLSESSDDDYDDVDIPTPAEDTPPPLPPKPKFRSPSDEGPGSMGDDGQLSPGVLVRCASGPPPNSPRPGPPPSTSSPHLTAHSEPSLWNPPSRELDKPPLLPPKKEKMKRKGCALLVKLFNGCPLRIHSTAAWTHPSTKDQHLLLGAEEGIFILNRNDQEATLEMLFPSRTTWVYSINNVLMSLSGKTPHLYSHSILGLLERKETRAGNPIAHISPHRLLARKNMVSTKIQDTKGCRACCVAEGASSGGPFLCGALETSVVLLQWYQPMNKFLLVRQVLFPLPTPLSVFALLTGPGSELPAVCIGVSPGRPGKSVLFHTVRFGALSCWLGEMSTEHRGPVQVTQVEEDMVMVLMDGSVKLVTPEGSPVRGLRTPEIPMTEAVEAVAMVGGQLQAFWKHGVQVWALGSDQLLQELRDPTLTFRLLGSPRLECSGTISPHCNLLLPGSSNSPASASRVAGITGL

[10] = target: Muscarinic acetylcholine receptor M3 (Homo sapiens) (UniProt P20309); settings: Compound concentration 10.0 uM
[11] = target: Serine/threonine-protein kinase BRSK1 (Homo sapiens) (UniProt Q8TDC3); settings: Compound concentration 1000.0 nM
[12] = target: T1, Alpha-1A adrenergic receptor (Homo sapiens) (UniProt P35348); settings: Compound concentration 10.0 uM
T1 sequence (whole entry): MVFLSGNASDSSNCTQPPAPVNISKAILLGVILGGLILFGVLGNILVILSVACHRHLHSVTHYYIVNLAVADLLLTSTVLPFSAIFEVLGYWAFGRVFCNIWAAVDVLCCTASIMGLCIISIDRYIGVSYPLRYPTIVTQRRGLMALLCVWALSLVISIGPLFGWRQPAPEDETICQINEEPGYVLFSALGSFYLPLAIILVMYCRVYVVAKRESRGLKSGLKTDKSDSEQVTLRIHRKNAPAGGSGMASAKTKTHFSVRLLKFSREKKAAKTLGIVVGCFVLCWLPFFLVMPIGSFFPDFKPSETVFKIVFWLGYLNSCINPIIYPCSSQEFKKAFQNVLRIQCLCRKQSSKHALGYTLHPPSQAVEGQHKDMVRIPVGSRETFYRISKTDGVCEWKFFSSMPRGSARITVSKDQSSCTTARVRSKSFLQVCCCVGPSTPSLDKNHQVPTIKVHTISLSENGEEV

[13] = target: Homeodomain-interacting protein kinase 4 (Homo sapiens) (UniProt Q8NE63); settings: Compound concentration 1000.0 nM
[14] = test system: Phosphatidylinositol 4,5-bisphosphate 3-kinase catalytic subunit alpha isoform (Homo sapiens), P42336 [E545A]; settings: Compound concentration 1000.0 nM
Phosphatidylinositol 4,5-bisphosphate 3-kinase catalytic subunit alpha isoform (Homo sapiens), P42336 [E545A], sequence (P42336 whole entry E545A, canonical isoform): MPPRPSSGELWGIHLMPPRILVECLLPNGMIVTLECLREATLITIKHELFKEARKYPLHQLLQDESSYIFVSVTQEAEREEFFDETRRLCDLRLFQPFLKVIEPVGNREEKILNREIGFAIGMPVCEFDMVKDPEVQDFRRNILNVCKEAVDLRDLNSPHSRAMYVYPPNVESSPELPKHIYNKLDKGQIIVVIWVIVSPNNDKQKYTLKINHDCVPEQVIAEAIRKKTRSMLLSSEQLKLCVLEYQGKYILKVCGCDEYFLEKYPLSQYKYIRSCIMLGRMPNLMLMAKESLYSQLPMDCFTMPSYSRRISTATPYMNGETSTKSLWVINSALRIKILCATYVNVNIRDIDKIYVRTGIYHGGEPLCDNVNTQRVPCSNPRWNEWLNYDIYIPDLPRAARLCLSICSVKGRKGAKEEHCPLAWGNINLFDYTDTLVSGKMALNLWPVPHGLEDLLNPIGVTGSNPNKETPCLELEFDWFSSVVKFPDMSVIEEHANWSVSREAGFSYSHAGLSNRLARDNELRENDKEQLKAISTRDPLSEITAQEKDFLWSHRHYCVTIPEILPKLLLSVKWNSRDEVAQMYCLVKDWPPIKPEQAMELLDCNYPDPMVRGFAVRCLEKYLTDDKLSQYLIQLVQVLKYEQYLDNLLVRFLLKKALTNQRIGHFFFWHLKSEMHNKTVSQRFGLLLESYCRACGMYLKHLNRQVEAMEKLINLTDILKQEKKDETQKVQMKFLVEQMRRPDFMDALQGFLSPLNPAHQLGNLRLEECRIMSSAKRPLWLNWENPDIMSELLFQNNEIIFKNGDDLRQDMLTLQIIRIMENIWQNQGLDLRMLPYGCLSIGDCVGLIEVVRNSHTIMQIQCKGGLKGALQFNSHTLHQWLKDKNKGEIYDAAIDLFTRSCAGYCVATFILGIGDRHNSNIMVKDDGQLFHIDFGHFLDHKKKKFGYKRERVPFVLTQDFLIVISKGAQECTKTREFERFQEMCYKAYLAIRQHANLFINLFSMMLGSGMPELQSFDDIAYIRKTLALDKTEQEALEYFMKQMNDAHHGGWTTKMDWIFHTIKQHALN

[15] = target: Serine/threonine-protein kinase 10 (Homo sapiens) (UniProt O94804); settings: Compound concentration 1000.0 nM
[16] = target: Serine/threonine-protein kinase Nek10 (Homo sapiens) (UniProt Q6ZWH5); settings: Compound concentration 1000.0 nM
Serine/threonine-protein kinase Nek10 (Homo sapiens), sequence (Q6ZWH5 whole entry): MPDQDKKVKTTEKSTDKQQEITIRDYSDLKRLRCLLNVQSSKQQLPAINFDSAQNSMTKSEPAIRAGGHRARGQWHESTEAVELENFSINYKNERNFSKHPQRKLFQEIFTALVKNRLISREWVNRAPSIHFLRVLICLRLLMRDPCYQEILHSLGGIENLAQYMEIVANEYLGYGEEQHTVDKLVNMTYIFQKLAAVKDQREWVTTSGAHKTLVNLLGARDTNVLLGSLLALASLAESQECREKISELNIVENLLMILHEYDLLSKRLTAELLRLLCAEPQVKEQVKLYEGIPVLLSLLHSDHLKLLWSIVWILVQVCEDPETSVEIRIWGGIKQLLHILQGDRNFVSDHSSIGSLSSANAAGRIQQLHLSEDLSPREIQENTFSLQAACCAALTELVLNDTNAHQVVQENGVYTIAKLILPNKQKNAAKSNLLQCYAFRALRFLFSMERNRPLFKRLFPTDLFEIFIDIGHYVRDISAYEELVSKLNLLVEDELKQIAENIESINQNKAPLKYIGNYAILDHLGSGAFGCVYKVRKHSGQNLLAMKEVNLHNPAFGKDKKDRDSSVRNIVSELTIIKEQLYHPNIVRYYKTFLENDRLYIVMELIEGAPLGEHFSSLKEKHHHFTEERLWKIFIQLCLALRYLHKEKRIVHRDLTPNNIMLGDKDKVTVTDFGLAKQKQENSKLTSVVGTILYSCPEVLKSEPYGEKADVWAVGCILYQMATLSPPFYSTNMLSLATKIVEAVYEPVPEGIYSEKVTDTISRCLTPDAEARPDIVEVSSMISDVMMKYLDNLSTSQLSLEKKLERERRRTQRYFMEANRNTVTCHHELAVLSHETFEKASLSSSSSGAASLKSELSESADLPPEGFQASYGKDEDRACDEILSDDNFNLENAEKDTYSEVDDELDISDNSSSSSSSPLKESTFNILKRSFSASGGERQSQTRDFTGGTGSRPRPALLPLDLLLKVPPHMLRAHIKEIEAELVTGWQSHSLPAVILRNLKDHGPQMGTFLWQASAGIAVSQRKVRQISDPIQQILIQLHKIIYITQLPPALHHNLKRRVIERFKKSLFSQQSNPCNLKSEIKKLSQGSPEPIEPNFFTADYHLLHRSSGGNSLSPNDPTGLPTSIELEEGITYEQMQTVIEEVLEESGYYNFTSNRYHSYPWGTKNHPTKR

[17] = target: Tyrosine-protein kinase Lyn (Homo sapiens) (UniProt P07948); settings: Compound concentration 1000.0 nM
[18] = target: Leukocyte tyrosine kinase receptor (Homo sapiens) (UniProt P29376); settings: Compound concentration 1000.0 nM
[19] = target: Interleukin-1 receptor-associated kinase 4 (Homo sapiens) (UniProt Q9NWZ3); settings: Compound concentration 1000.0 nM
[20] = target: Serine/threonine-protein kinase 16 (Homo sapiens) (UniProt O75716); settings: Compound concentration 1000.0 nM
Serine/threonine-protein kinase 16 (Homo sapiens), sequence (O75716 whole entry): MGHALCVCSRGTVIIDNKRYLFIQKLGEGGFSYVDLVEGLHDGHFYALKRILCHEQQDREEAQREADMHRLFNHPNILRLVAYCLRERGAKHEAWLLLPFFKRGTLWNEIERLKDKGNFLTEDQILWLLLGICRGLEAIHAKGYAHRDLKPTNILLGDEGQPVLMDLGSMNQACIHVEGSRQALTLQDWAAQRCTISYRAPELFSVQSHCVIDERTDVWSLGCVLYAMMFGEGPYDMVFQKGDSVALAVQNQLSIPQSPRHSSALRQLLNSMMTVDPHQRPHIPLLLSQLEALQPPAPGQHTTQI

[21] = target: Mast/stem cell growth factor receptor Kit (Homo sapiens) (UniProt P10721); settings: Compound concentration 1000.0 nM
[22] = target: Mitogen-activated protein kinase 7 (Homo sapiens) (UniProt Q13164); settings: Compound concentration 1000.0 nM
[23] = target: Serine/threonine-protein kinase NLK (Homo sapiens) (UniProt Q9UBE8); settings: Compound concentration 1000.0 nM
Serine/threonine-protein kinase NLK (Homo sapiens), sequence (Q9UBE8 whole entry): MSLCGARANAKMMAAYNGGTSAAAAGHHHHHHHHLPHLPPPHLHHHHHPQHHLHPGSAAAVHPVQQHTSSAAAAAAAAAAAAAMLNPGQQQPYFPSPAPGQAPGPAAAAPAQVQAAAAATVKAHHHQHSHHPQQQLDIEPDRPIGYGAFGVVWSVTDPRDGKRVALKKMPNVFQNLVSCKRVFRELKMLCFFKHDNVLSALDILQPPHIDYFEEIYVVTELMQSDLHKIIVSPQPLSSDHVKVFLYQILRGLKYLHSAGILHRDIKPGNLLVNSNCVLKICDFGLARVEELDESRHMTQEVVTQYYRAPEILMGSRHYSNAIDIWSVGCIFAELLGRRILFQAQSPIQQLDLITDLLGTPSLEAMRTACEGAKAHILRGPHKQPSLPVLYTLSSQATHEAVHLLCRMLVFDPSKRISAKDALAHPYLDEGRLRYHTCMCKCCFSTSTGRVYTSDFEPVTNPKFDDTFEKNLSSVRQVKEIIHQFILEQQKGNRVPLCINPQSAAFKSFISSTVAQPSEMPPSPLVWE

[24] = target: Macrophage colony-stimulating factor 1 receptor (Homo sapiens) (UniProt P07333); settings: Compound concentration 1000.0 nM
[25] = test system: Receptor-type tyrosine-protein kinase FLT3 (Homo sapiens), P36888 [D835V]; settings: Compound concentration 1000.0 nM
[26] = target: T2, Muscarinic acetylcholine receptor M1 (Homo sapiens) (UniProt P11229); settings: Compound concentration 10.0 uM
T2 sequence (whole entry): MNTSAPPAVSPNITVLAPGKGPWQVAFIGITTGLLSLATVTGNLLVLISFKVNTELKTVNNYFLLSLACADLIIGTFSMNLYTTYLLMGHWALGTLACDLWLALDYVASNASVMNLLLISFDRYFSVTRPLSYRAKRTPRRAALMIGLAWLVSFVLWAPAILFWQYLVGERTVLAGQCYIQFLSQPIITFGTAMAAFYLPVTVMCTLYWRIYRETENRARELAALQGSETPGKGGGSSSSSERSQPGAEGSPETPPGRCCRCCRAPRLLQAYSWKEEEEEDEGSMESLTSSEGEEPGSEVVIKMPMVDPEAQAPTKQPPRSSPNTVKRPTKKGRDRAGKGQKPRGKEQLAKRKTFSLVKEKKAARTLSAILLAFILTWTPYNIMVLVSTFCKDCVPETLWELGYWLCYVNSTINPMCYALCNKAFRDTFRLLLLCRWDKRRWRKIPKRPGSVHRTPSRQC

[27] = target: Phosphatidylinositol 4,5-bisphosphate 3-kinase catalytic subunit alpha isoform (Homo sapiens) (UniProt P42336); settings: Compound concentration 1000.0 nM
Phosphatidylinositol 4,5-bisphosphate 3-kinase catalytic subunit alpha isoform (Homo sapiens), sequence (P42336 whole entry, canonical isoform): as the sequence (P42336 whole entry E545A, canonical isoform) above, with A545E counted along it

[28] = target: Serine/threonine-protein kinase tousled-like 2 (Homo sapiens) (UniProt Q86UE8); settings: Compound concentration 1000.0 nM
[29] = target: Serine/threonine-protein kinase WNK3 (Homo sapiens) (UniProt Q9BYP7); settings: Compound concentration 1000.0 nM
[30] = target: Serine/threonine-protein kinase N2 (Homo sapiens) (UniProt Q16513); settings: Compound concentration 1000.0 nM
Serine/threonine-protein kinase N2 (Homo sapiens), sequence (Q16513 whole entry, looked up): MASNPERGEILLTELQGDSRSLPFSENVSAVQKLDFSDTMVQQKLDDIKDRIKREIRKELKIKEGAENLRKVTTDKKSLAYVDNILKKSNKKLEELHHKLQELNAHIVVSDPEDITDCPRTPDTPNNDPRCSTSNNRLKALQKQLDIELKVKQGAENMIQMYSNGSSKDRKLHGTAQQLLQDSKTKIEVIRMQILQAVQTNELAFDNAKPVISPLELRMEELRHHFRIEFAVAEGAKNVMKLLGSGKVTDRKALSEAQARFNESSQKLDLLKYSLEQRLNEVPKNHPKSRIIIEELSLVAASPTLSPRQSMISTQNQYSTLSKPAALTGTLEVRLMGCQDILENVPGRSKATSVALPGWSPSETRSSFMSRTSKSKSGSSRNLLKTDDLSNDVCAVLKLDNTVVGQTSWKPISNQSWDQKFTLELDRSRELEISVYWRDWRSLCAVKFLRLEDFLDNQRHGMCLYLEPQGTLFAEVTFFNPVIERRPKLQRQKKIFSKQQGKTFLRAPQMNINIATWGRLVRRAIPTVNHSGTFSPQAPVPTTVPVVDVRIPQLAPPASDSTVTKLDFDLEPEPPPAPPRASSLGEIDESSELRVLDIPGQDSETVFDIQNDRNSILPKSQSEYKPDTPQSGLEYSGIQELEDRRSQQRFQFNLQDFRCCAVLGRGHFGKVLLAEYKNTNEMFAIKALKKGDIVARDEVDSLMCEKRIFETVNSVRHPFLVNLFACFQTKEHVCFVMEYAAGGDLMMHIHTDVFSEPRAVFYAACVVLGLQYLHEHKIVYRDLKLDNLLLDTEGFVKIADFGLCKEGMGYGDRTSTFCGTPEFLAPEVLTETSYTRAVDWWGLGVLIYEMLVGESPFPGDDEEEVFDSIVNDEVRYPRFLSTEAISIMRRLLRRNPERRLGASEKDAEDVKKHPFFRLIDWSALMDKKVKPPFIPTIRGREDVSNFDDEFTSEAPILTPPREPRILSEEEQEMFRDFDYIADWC

[31] = target: Calcium/calmodulin-dependent protein kinase type II subunit alpha (Homo sapiens) (UniProt Q9UQM7); settings: Compound concentration 1000.0 nM
[32] = target: Calcium/calmodulin-dependent protein kinase type 1B (Homo sapiens) (UniProt Q6P2M8); settings: Compound concentration 1000.0 nM

Structure (SMILES) | residual activity [1] | residual activity [2] | residual activity [3] | residual activity [4] | residual activity [5] | residual activity [6] | residual activity [7] | residual activity [8] | residual activity [9] | inhibition [10] | residual activity [11] | inhibition [12] | residual activity [13] | residual activity [14] | residual activity [15] | residual activity [16] | residual activity [17] | residual activity [18] | residual activity [19] | residual activity [20] | further results
NS(=O)(=O)c1cc(NC(=O)C2(c3ccccc3Cl)CC2)ccc1Oc1cccc(Cl)c1 [BAY-207] | 96% | 88% | 86% | 82% | 64% | 100% | 69% | 32% | 66% | 17.9% | 82% | 15.1% | 58% | 82% | 69% | 89% | 83% | 73% | 61% | 100% | residual activity [21]: 90%; residual activity [22]: 92%; residual activity [23]: 68%; residual activity [24]: 100%; residual activity [25]: 100%; inhibition [26]: -3.55%; residual activity [27]: 100%; residual activity [28]: 100%; residual activity [29]: 78%; residual activity [30]: 83%; residual activity [31]: 97%; residual activity [32]: 100%
NS(=O)(=O)c1cc(NC(=O)Cc2ccccc2)ccc1Oc1cccc(Cl)c1 [BAY-1797] | 87% | 87% | 100% | 100% | 96% | 100% | 79% | 55% | 91% | -0.53% | 91% | 5.04% | 100% | 69% | 65% | 89% | 99% | 87% | 91% | 95% | residual activity [21]: 89%; residual activity [22]: 83%; residual activity [23]: 100%; residual activity [24]: 51%; residual activity [25]: 86%; inhibition [26]: 11.4%; residual activity [27]: 89%; residual activity [28]: 100%; residual activity [29]: 78%; residual activity [30]: 90%; residual activity [31]: 96%; residual activity [32]: 83%
